Experimental data taken from patent US11708344B2, “Flavone derivatives for the treatment and prophylaxis of hepatitis B virus disease” (Hoffmann-La Roche Inc., priority 2018, dated 2023).

How the values were obtained:
[1] = system: HBeAg (surrogate marker for cccDNA) in HepDES19 cells; test: Engineered HepDES19 primary screen assay (HBeAg ELISA); format: cell-based, HBV; details: Hepatitis B virus, HepDES19, 120 h, read-out: IC50 (HBeAg level, HepDES19 primary screen assay), HepDES19 cells, 5 days compound incubation, HBeAg ELISA
Procedure, shortened: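 IC50 values come from 4-parameter logistic fits of HBeAg ELISA signal, the cccDNA surrogate, with CCK-8 run in parallel for viability. Compounds at half-log dilutions with 1% DMSO were applied for 5 days at 37 °C to HepDES19 cells previously cultured 8 days without Tet.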

[2] = system: HBsAg in HBV-infected PHH; test: Cryopreserved primary human hepatocytes (PHH) HBV infection assay, extracellular HBsAg (CLIA); format: cell-based; details: Hepatitis B virus, Hepatocyte, 216 h, read-out: HBsAg IC50, Cryopreserved PHH infected with HBV, 9 days post-compound treatment, extracellular HBsAg
Procedure, shortened: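 Cryopreserved PHH were infected with 5.8×10^6 HBV genome equivalents in medium with 4% PEG8000 and 1% DMSO. After 9 days of treatment, extracellular HBsAg was measured by CLIA, and IC50 was derived from a 4-parameter logistic fit.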

[3] = Human microsome stability assay; format: in vitro ADME; details: human liver microsomes, 1 μM test compound, 0.5 mg/mL microsomal protein, 37° C., pH 7.4, 0-30 minutes
Procedure, shortened: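 Parent compound remaining was measured by LC-MS/MS at 0, 3, 6, 9, 15 and 30 min, following ACN quench. Reactions held 1 μM compound and 0.5 mg/mL human liver microsomal protein in pH 7.4 phosphate buffer at 37 °C, started by NADPH regeneration (1 mM NADP, 1 mM MgCl2); controls lacked NADPH.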

For O=c1cc(-c2ccccc2OC[C@H]2C[C@H](C(=O)O)C2)oc2c(Cl)cccc12 [Example B026-B, Trans-3-[[2-(8-chloro-4-oxo-chromen-2-yl)phenoxy]methyl]cyclobutanecarboxylic acid], the IC50 [1] was 138 nM, the IC50 [2] was 3190 nM and the “Clearance of Human microsome” value [3] was 6.15 mL/min/kg.

In the case of O=C(O)COCCCOc1cc(OC(F)(F)F)ccc1-c1cc(=O)c2cccc(Cl)c2o1 [Example C014, 2-[3-[2-(8-chloro-4-oxo-chromen-2-yl)-5-(trifluoromethoxy)phenoxy]propoxy]acetic acid], the IC50 [1] is reported as 2190 nM, the IC50 [2] is reported as 7800 nM and the “Clearance of Human microsome” value [3] is reported as 8.04 mL/min/kg.

For CS(=O)(=O)NC(=O)[C@H]1C[C@@H](Oc2cc(OC(F)(F)F)ccc2-c2cc(=O)c3cccc(Cl)c3o2)C1 [Example B047-A, Cis-3-[2-(8-chloro-4-oxo-chromen-2-yl)-5-(trifluoromethoxy)phenoxy]-N-methylsulfonyl-cyclobutanecarboxamide], the IC50 [1] was 1960 nM, the IC50 [2] was 5540 nM and the “Clearance of Human microsome” value [3] was 6.15 mL/min/kg.

With O=c1cc(-c2ccc(Br)cc2O[C@H]2C[C@@H](C(=O)O)C2)oc2c(Cl)ccc(O)c12 [Example B036-A, Cis-3-[5-bromo-2-(8-chloro-5-hydroxy-4-oxo-chromen-2-yl)phenoxy]cyclobutanecarboxylic acid] the IC50 [1] was 926 nM, the IC50 [2] was 9500 nM and the “Clearance of Human microsome” value [3] was 6.15 mL/min/kg.

With O=C(O)C1CCC(Oc2cc(Br)ccc2-c2cc(=O)c3cccc(Cl)c3o2)CC1 (stereo not drawn) [Example B010, 4-[5-bromo-2-(8-chloro-4-oxo-chromen-2-yl)phenoxy]cyclohexanecarboxylic acid] the IC50 [1] was 2760 nM, the IC50 [2] was 7080 nM and the “Clearance of Human microsome” value [3] was 6.15 mL/min/kg.

With O=C(O)[C@H](COc1cc(C(F)(F)F)ccc1-c1cc(=O)c2cccc(Cl)c2o1)NS(=O)(=O)C1CC1 [Example A096, (2S)-3-[2-(8-chloro-4-oxo-chromen-2-yl)-5-(trifluoromethyl)phenoxy]-2-(cyclopropylsulfonylamino)propanoic acid] the IC50 [1] was 114 nM, the IC50 [2] was 1240 nM and the “Clearance of Human microsome” value [3] was 6.15 mL/min/kg.

In the case of Cc1cc(-c2cc(=O)c3cccc(Cl)c3o2)c(OCCCOCC(=O)O)cc1Cl [Example C019, 2-[3-[5-chloro-2-(8-chloro-4-oxo-chromen-2-yl)-4-methyl-phenoxy]propoxy]acetic acid], the IC50 [1] is reported as 185 nM, the IC50 [2] is reported as 3000 nM and the “Clearance of Human microsome” value [3] is reported as 6.71 mL/min/kg.

For COc1cc(OCCO[C@H]2C[C@@H](C(=O)O)C2)c(-c2cc(=O)c3cccc(Cl)c3o2)cc1OC(F)F [Example C086, cis-3-[2-[2-(8-chloro-4-oxo-chromen-2-yl)-4-(difluoromethoxy)-5-methoxy-phenoxy]ethoxy]cyclobutanecarboxylic acid], the IC50 [1] was 5030 nM, the IC50 [2] was 5460 nM and the “Clearance of Human microsome” value [3] was 6.15 mL/min/kg.

In the case of COc1ccc(-c2cc(=O)c3cccc(Cl)c3o2)c(O[C@H]2C[C@@H](C(=O)O)C2)c1 [Example B011-A, Cis-3-[2-(8-chloro-4-oxo-chromen-2-yl)-5-methoxy-phenoxy]cyclobutanecarboxylic acid], the IC50 [1] is reported as 851 nM, the IC50 [2] is reported as 2320 nM and the “Clearance of Human microsome” value [3] is reported as 8.35 mL/min/kg.

For O=c1cc(-c2ccc(F)cc2OCCO[C@H]2C[C@H](C(=O)O)C2)oc2c(Cl)cccc12 [Example C034-B, Trans-3-[2-[2-(8-chloro-4-oxo-chromen-2-yl)-5-fluoro-phenoxy]ethoxy]cyclobutanecarboxylic acid], the IC50 [1] was 1810 nM, the IC50 [2] was 9110 nM and the “Clearance of Human microsome” value [3] was 6.75 mL/min/kg.

In the case of O=c1cc(-c2ccccc2OC[C@H]2C[C@@H](C(=O)O)C2)oc2c(Cl)cccc12 [Example B026-A, Cis-3-[[2-(8-chloro-4-oxo-chromen-2-yl)phenoxy]methyl]cyclobutanecarboxylic acid], the IC50 [1] is reported as 39.4 nM, the IC50 [2] is reported as 4970 nM and the “Clearance of Human microsome” value [3] is reported as 6.15 mL/min/kg.

With O=C(CCOc1cc(C(F)(F)F)ccc1-c1cc(=O)c2cccc(Cl)c2o1)NS(=O)(=O)C1CC1 [Example A084, 3-[2-(8-chloro-4-oxo-chromen-2-yl)-5-(trifluoromethyl)phenoxy]-N-cyclopropylsulfonyl-propanamide] the IC50 [1] was 1450 nM, the IC50 [2] was 1020 nM and the “Clearance of Human microsome” value [3] was 7.5 mL/min/kg.

In the case of O=c1cc(-c2ccc(F)cc2OCCO[C@H]2C[C@@H](C(=O)O)C2)oc2c(Cl)cccc12 [Example C034-A, Cis-3-[2-[2-(8-chloro-4-oxo-chromen-2-yl)-5-fluoro-phenoxy]ethoxy]cyclobutanecarboxylic acid], the IC50 [1] is reported as 526 nM, the IC50 [2] is reported as 4690 nM and the “Clearance of Human microsome” value [3] is reported as 6.15 mL/min/kg.

For Cc1ccc(-c2cc(=O)c3c(O)ccc(Cl)c3o2)c(O[C@H]2C[C@@H](C(=O)O)C2)c1 [Example B037-A, Cis-3-[2-(8-chloro-5-hydroxy-4-oxo-chromen-2-yl)-5-methyl-phenoxy]cyclobutanecarboxylic acid], the IC50 [1] was 4430 nM, the IC50 [2] was 2040 nM and the “Clearance of Human microsome” value [3] was 9.86 mL/min/kg.

With O=C(O)CCOc1cc(OC(F)(F)F)ccc1-c1cc(=O)c2cccc(Br)c2o1 [Example A022, 3-[2-(8-bromo-4-oxo-chromen-2-yl)-5-(trifluoromethoxy)phenoxy]propanoic acid] the IC50 [1] was 983 nM, the IC50 [2] was 754 nM and the “Clearance of Human microsome” value [3] was 6.15 mL/min/kg.

With O=C(O)[C@@H]1C[C@@H](Oc2cc(C(F)(F)F)ccc2-c2cc(=O)c3cccc(Cl)c3o2)CN1S(=O)(=O)c1ccccc1 [Example B076, (2S,4R)-1-(benzenesulfonyl)-4-[2-(8-chloro-4-oxo-chromen-2-yl)-5-(trifluoromethyl)phenoxy]pyrrolidine-2-carboxylic acid] the IC50 [1] was 111 nM, the IC50 [2] was 1310 nM and the “Clearance of Human microsome” value [3] was 6.15 mL/min/kg.

In the case of Cc1ccc(-c2cc(=O)c3cccc(Cl)c3o2)c(OCC(=O)O)c1 [Example A049, 2-[2-(8-chloro-4-oxo-chromen-2-yl)-5-methyl-phenoxy]acetic acid], the IC50 [1] is reported as 87.2 nM, the IC50 [2] is reported as 1260 nM and the “Clearance of Human microsome” value [3] is reported as 6.15 mL/min/kg.

In the case of O=C(O)COCCCOc1cc2c(cc1-c1cc(=O)c3cccc(Cl)c3o1)OCO2 [Example C015, 2-[3-[[6-(8-chloro-4-oxo-chromen-2-yl)-1,3-benzodioxo1-5-yl]oxy]propoxy]acetic acid], the IC50 [1] is reported as 7870 nM, the IC50 [2] is reported as 3360 nM and the “Clearance of Human microsome” value [3] is reported as 6.15 mL/min/kg.

For O=C1CCCN1c1ccc(-c2cc(=O)c3cccc(Cl)c3o2)c(OCCO[C@H]2C[C@@H](C(=O)O)C2)c1 [Example C063-A, Cis-3-[2-[2-(8-chloro-4-oxo-chromen-2-yl)-5-(2-oxopyrrolidin-1-yl)phenoxy]ethoxy]cyclobutanecarboxylic acid], the IC50 [1] was 4950 nM, the IC50 [2] was 6610 nM and the “Clearance of Human microsome” value [3] was 9.09 mL/min/kg.

With COc1cc(OCCO[C@H]2C[C@@H](C(=O)NS(C)(=O)=O)C2)c(-c2cc(=O)c3cccc(Cl)c3o2)cc1OC [Example C125, 3-[2-[2-(8-chloro-4-oxo-chromen-2-yl)-4,5-dimethoxy-phenoxy]ethoxy]-N-methylsulfonyl-cyclobutanecarboxamide] the IC50 [1] was 4910 nM, the IC50 [2] was 7170 nM and the “Clearance of Human microsome” value [3] was 6.15 mL/min/kg.

In the case of O=c1cc(-c2cc3c(cc2OCCO[C@H]2C[C@@H](C(=O)O)C2)OCO3)oc2c(Cl)cccc12 [Example C043-A, Cis-3-[2-[[6-(8-chloro-4-oxo-chromen-2-yl)-1,3-benzodioxo1-5-yl]oxy]ethoxy]cyclobutanecarboxylic acid], the IC50 [1] is reported as 2680 nM, the IC50 [2] is reported as 8670 nM and the “Clearance of Human microsome” value [3] is reported as 6.15 mL/min/kg.

With COc1cc(OCCC(=O)O)c(-c2cc(=O)c3cccc(Cl)c3o2)cc1OC [Example A010, 3-[2-(8-chloro-4-oxo-chromen-2-yl)-4,5-dimethoxy-phenoxy]propanoic acid] the IC50 [1] was 1400 nM, the IC50 [2] was 3000 nM and the “Clearance of Human microsome” value [3] was 6.15 mL/min/kg.

With O=C(O)CCCOc1cc(C(F)(F)F)ccc1-c1cc(=O)c2cccc(Cl)c2o1 [Example A052, 4-[2-(8-chloro-4-oxo-chromen-2-yl)-5-(trifluoromethyl)phenoxy]butanoic acid] the IC50 [1] was 213 nM, the IC50 [2] was 6910 nM and the “Clearance of Human microsome” value [3] was 8.01 mL/min/kg.

For Cc1ccc(S(=O)(=O)N[C@@H](COc2cc(C(F)(F)F)ccc2-c2cc(=O)c3cccc(Cl)c3o2)C(=O)O)cc1 [Example A097, (2S)-3-[2-(8-chloro-4-oxo-chromen-2-yl)-5-(trifluoromethyl)phenoxy]-2-(p-tolylsulfonylamino)propanoic acid], the IC50 [1] was 983 nM, the IC50 [2] was 4030 nM and the “Clearance of Human microsome” value [3] was 8.78 mL/min/kg.

With COc1cc(-c2cc(=O)c3cccc(Cl)c3o2)c(OCCO[C@H]2C[C@@H](C(=O)O)C2)cc1OCC(F)(F)F [Example C080, Cis-3-[2-[2-(8-chloro-4-oxo-chromen-2-yl)-4-methoxy-5-(2,2,2-trifluoroethoxy)phenoxy]ethoxy]cyclobutanecarboxylic acid] the IC50 [1] was 4000 nM, the IC50 [2] was 3510 nM and the “Clearance of Human microsome” value [3] was 6.15 mL/min/kg.
